Experimental data as given in patent US20060046988A1, “Methoprene formulations for the control of tick infestations” (priority 2004, published 2006).
Like-named read-outs stand apart in the source and are kept apart here.

Tested on: Rhipicephalus sanguineus
Assay: In vitro immersion of engorged female ticks in (S)-methoprene: oviposition, egg mass weight, egg hatch
Conditions: for Eggs Weight: Day 13; for Eggs Hatch (%): 48 days after exposure; for inhibition at 100 ppm / inhibition at 1000 ppm / inhibition at 10000 ppm / inhibition at 100000 ppm: Rhipicephalus sanguineus; for Egg Mass Per Tick / Total Egg Mass / Total Viable Egg Mass / Viable Egg Mass Per Tick / Reduction in Ticks Laying Eggs: replicates combined
Method: The effect of (S)-methoprene on oviposition, egg mass weights, and egg eclosion was measured in adult females of a colonized strain of the brown dog tick, Rhipicephalus sanguineus. Approximately fifty R. sanguineus ticks were fed on twelve dogs each. Fully engorged females that dropped from the dogs over a period of two days were collected and combined into replicates. The following replicates were formed: Replicate A-50 ticks, Replicate B-40 ticks, and Replicate C-10 ticks. From each replicate A-C, 5 groups of equal numbers of ticks were formed, each group of ticks having similar combined body weights. Each of the 5 groups of ticks was randomly allocated to a treatment group.
The treatment groups were: Treatment I-Control: acetone/water (40%: 60%); Treatment 2-100 ppm (S)-methoprene dissolved in acetone/water (40:60); Treatment 3-1,000 ppm (S)-methoprene dissolved in acetone/water (40:60); Treatment 4-10,000 ppm (S)-methoprene dissolved in acetone/water (40:60); and Treatment 5-100,000 ppm (S)-methoprene dissolved in acetone/water (40:60). Each group of ticks was immersed in the appropriate test solution for two mins, after which they were removed, dried on a paper towel and placed in a clean container. All ticks in all treatment groups were kept in an environmental chamber maintained at 26-27° Celsius and 65-87% relative humidity. The number of ticks that laid eggs and total egg mass weights for each replicate of each treatment group was recorded 13 days after exposure to treatment. Additionally, an estimation of percentage of egg hatching for each replicate in each treatment group was recorded 48 days after exposure to treatment.
The number of ticks laying eggs, egg mass weights, percentage of eggs that hatched, and weight of viable eggs are provided in Table 1.

[1] = 100 ppm, Replicate A, 10 ticks treated
[2] = 100 ppm, Replicate B, 8 ticks treated
[3] = 100 ppm, Replicate C, 2 ticks treated
[4] = 1,000 ppm, Replicate A, 10 ticks treated
[5] = 1,000 ppm, Replicate B, 8 ticks treated
[6] = 1,000 ppm, Replicate C, 2 ticks treated
[7] = 10,000 ppm, Replicate A, 10 ticks treated
[8] = 10,000 ppm, Replicate B, 8 ticks treated
[9] = 10,000 ppm, Replicate C, 2 ticks treated
[10] = 100,000 ppm, Replicate A, 10 ticks treated
[11] = 100,000 ppm, Replicate B, 8 ticks treated
[12] = 100,000 ppm, Replicate C, 2 ticks treated
[13] = Treatment 3: 1,000 ppm, compared to control
[14] = Treatment 4: 10,000 ppm, compared to control
[15] = Treatment 5: 100,000 ppm, compared to control

COC(C)(C)CCC[C@H](C)C/C=C/C(C)=C/C(=O)OC(C)C [(S)-methoprene]
Eggs Viable [1]: 1.65 g
Number of Ticks Laying Eggs (Day 13) [1]: 10
Eggs Weight [1]: 1.67 g
Eggs Hatch (%) (100 ppm, Replicate A): 99%
Eggs Viable [2]: 1.36 g
Number of Ticks Laying Eggs (Day 13) [2]: 8
Eggs Weight [2]: 1.36 g
Eggs Hatch (%) (100 ppm, Replicate B): 100%
Eggs Viable [3]: 0.18 g
Number of Ticks Laying Eggs (Day 13) [3]: 2
Eggs Weight [3]: 0.35 g
Eggs Hatch (%) (100 ppm, Replicate C): 50%
Eggs Viable [4]: 0.26 g
Number of Ticks Laying Eggs (Day 13) [4]: 9
Eggs Weight [4]: 1.03 g
Eggs Hatch (%) (1,000 ppm, Replicate A): 25%
Eggs Viable [5]: 0.29 g
Number of Ticks Laying Eggs (Day 13) [5]: 8
Eggs Weight [5]: 0.95 g
Eggs Hatch (%) (1,000 ppm, Replicate B): 30%
Eggs Viable [6]: 0.10 g
Number of Ticks Laying Eggs (Day 13) [6]: 2
Eggs Weight [6]: 0.28 g
Eggs Hatch (%) (1,000 ppm, Replicate C): 35%
Eggs Viable [7]: 0 g
Number of Ticks Laying Eggs (Day 13) [7]: 10
Eggs Weight [7]: 0.97 g
Eggs Hatch (%) (10,000 ppm, Replicate A): 0%
Eggs Viable [8]: 0 g
Number of Ticks Laying Eggs (Day 13) [8]: 8
Eggs Weight [8]: 0.57 g
Eggs Hatch (%) (10,000 ppm, Replicate B): 0%
Eggs Viable [9]: 0 g
Number of Ticks Laying Eggs (Day 13) [9]: 2
Eggs Weight [9]: 0.14 g
Eggs Hatch (%) (10,000 ppm, Replicate C): 0%
Eggs Viable [10]: 0 g
Number of Ticks Laying Eggs (Day 13) [10]: 8
Eggs Weight [10]: 0.59 g
Eggs Hatch (%) (100,000 ppm, Replicate A): 0%
Eggs Viable [11]: 0 g
Number of Ticks Laying Eggs (Day 13) [11]: 8
Eggs Weight [11]: 0.39 g
Eggs Hatch (%) (100,000 ppm, Replicate B): 0%
Eggs Viable [12]: 0 g
Number of Ticks Laying Eggs (Day 13) [12]: 2
Eggs Weight [12]: 0.05 g
Eggs Hatch (%) (100,000 ppm, Replicate C): 0%
inhibition at 100 ppm (Treatment 2: 100 ppm, compared to control, read-out: Reduction Viable Egg Mass Per Tick): 0%
inhibition at 100 ppm (Treatment 2: 100 ppm, compared to control, read-out: Reduction in Viable Egg Mass): 0%
inhibition at 1000 ppm (Treatment 3: 1,000 ppm, compared to control, read-out: Reduction Viable Egg Mass Per Tick): 78%
inhibition at 1000 ppm (Treatment 3: 1,000 ppm, compared to control, read-out: Reduction in Viable Egg Mass): 79%
inhibition at 10000 ppm (Treatment 4: 10,000 ppm, compared to control, read-out: Reduction Viable Egg Mass Per Tick): 100%
inhibition at 10000 ppm (Treatment 4: 10,000 ppm, compared to control, read-out: Reduction in Viable Egg Mass): 100%
inhibition at 100000 ppm (Treatment 5: 100,000 ppm, compared to control, read-out: Reduction Viable Egg Mass Per Tick): 100%
inhibition at 100000 ppm (Treatment 5: 100,000 ppm, compared to control, read-out: Reduction in Viable Egg Mass): 100%
Egg Mass Per Tick (Treatment 2: 100 ppm): 0.169 g
Total Egg Mass (Treatment 2: 100 ppm): 3.38 g
Total Viable Egg Mass (Treatment 2: 100 ppm): 3.19 g
Viable Egg Mass Per Tick (Treatment 2: 100 ppm): 0.160 g
Reduction in Ticks Laying Eggs (Treatment 2: 100 ppm, compared to control): 0%
Egg Mass Per Tick Reduction [13]: 28%
Reduction of Total Egg Mass [13]: 32%
Egg Mass Per Tick (Treatment 3: 1,000 ppm): 0.119 g
Total Egg Mass (Treatment 3: 1,000 ppm): 2.26 g
Total Viable Egg Mass (Treatment 3: 1,000 ppm): 0.65 g
Viable Egg Mass Per Tick (Treatment 3: 1,000 ppm): 0.034 g
Reduction in Ticks Laying Eggs [13]: 5%
Egg Mass Per Tick Reduction [14]: 49%
Reduction Viable Egg Mass Per Tick [14]: 100%
Reduction of Total Egg Mass [14]: 49%
Egg Mass Per Tick (Treatment 4: 10,000 ppm): 0.084 g
Total Egg Mass (Treatment 4: 10,000 ppm): 1.68 g
Total Viable Egg Mass (Treatment 4: 10,000 ppm): 0 g
Viable Egg Mass Per Tick (Treatment 4: 10,000 ppm): 0 g
Reduction in Ticks Laying Eggs [14]: 0%
Egg Mass Per Tick Reduction [15]: 65%
Reduction in Viable Egg Mass [15]: 100%
Reduction of Total Egg Mass [15]: 69%
Egg Mass Per Tick (Treatment 5: 100,000 ppm): 0.057 g
Total Egg Mass (Treatment 5: 100,000 ppm): 1.03 g
Total Viable Egg Mass (Treatment 5: 100,000 ppm): 0 g
Viable Egg Mass Per Tick (Treatment 5: 100,000 ppm): 0 g
Reduction in Ticks Laying Eggs [15]: 10%
